“And” between values parts separate entries of the source, which are not always exact repeats. Equal entries are not always repeated. Where two headings read alike, the source gives them in different places.
Tests used:
SMARCA4^BD = target: T1, SMARCA4^BD (Homo sapiens, UniProt P51532); experiment: SPR binding to immobilised SMARCA4 bromodomain
T1 construct: P51532, residues 1448–1569 with additional N-terminal SM residues; GST (TEV site) (N, cleaved yes); made in house; host or cells: Escherichia coli BL21(DE3); construct from SGC Toronto
Procedure: SMARCA4^BD was provided by the Structural Genomics Consortium (SGC), Toronto[32] and SMARCA2^BD and PRM1^BD5 were synthesised by GeneArt then subcloned into pDEST15 vectors (Invitrogen). The VCB complex was expressed and purified as described previously, with the modification that 0.3 mM IPTG was used for induction of expression. […] Both were stored in 20 mM 4-(2-hydroxyethyl)−1-piperazineethanesulfonic acid (HEPES), 150 mM sodium chloride and 1 mM tris(2-carboxyethyl)phosphine (TCEP) pH 7.5. SMARCA2^BD, SMARCA4^BD and PBRM1^BD5 were expressed in Escherichia coli BL21(DE3) as N-terminal GST fusion proteins with a TEV protease cleavage site. Expression and purification of these proteins has been described previously[32],[33]. Starter cultures were grown overnight at 37 °C in 10 mL of Luria-Bertani (LB) medium with ampicillin (100 μg/mL). The starter cultures were diluted (1:100) in Terrific Broth (TB) medium with ampicillin (100 μg/mL) and grown in a shaking incubator at 37 °C to an optical density (OD600) ~1 before the temperature was lowered for induction (to 23 °C for SMARCA2^BD or 18 °C for SMARCA4^BD and PRRM1^BD5). […] Cells were harvested by centrifugation and stored at −80 °C prior to purification. Cells were resuspended in Lysis buffer and lysed by sonication (20 pulses of 5 s for 4 min) using a Sonopuls HD 3080 (Bandelin, Berlin, Germany) or by homogenisation using a Stansted Pressure Cell Homogeniser (Stansted Fluid Power). The Lysis buffers were as follows: for SMARCA2^BD: 50 mM HEPES, 500 mM sodium chloride, 5% glycerol, 5 mM dithiothreitol (DTT); for SMARCA4^BD: 25 mM HEPES, 0.3 M sodium chloride, 5% glycerol, 10 mM DTT, pH 7.5; for PBRM1^BD5: 25 mM HEPES, 300 mM sodium chloride, 5% glycerol, 10 mM DTT, pH 7.8; in each case supplemented with complete protease inhibitors (Roche). Affinity purification was performed using Glutathione Sepharose 4B (GE Healthcare) in batch mode or on-column. […] For SMARCA2^BD, prior to TEV protease cleavage the eluted GST-tagged BD was first dialysed into desalting buffer (20 mM HEPES, 250 mM sodium chloride, pH 7.0 + 0.5% glycerol). Where TEV cleavage was performed in solution, a second affinity (GST-trap) column purification step was carried out to remove the GST-tag and uncleaved GST-tagged protein. Proteins were further purified by SEC (HiLoad Superdex-75, 16/600) (GE Healthcare) and stored in Storage buffer (for SMARCA2^BD: 20 mM HEPES, 150 mM sodium chloride, pH 7.5; for SMARCA4^BD: 10 mM HEPES, 0.5 M NaCl, 5% glycerol, pH 7.5; for PBRM1^BD5: 20 mM HEPES, 300 mM NaCl, 5 mM DTT, pH 7.8). For AlphaScreen assays, eluted GST-tagged BDs were purified directly by SEC in the respective storage buffers without TEV cleavage. All chromatography purification steps were performed either at room temperature or 4 °C using an ÄKTA FPLC purification system (GE Healthcare) or a plastic Econo-Pac column (Bio-Rad).
SPR data were acquired on Biacore 8K or T200 instruments (Cytiva). Target proteins were immobilised at 25 °C on CM5 chips by amine coupling (EDC/NHS, Cytiva) in HBS-P+ running buffer (pH 7.4), containing 2 mM TCEP. After surface activation with EDC/NHS (contact time 420 s, flow rate 10 µl/min) SMARCA2^BD and SMARCA4^BD at 0.01–0.05 mg/ml in coupling buffer (10 mM Na-Acetate pH 6.5, 0.005% TWEEN 20 and 50 µM PFI-3[13]) were immobilised to a density of 100–5000 Response Units (RU). The reference surface was subsequently deactivated using 1 M ethanolamine. For VCB immobilisation, streptavidin (Sigma Aldrich, prepared at 1 mg/ml in 10 mM sodium acetate coupling buffer, pH 5.0) was immobilised by amine coupling to a density of 3000–5000 RU after which biotinylated VCB complex (0.125 mM in running buffer) was streptavidin-coupled to a density of 100–500 RU. Biotinylated VCB was prepared as previously described[27]: in brief, the complex was mixed 1:1 with EZ-Link NHS–PEG4–biotin (Thermo Scientific) and incubated at room temperature for 1 h.

SMARCA4 = SMARCA4 (Homo sapiens, UniProt P51532); experiment: Imaging-based SMARCA4 protein assay in RKO cells; format: cell-based; design: endogenous in cells; host or cells: RKO, HCT116, LU99, HCC-364, HCT-15, HCC4006, SK-N-AS; conditions: individual replicates
Procedure: 1250 cells per well in 60 µl medium were plated in flat bottom, poly-lysin coated 384-well plates (CellCarrier Ultra, Perkin Elmer). The next day, test compounds (10 µl of serial dilutions) and DMSO controls were diluted in DMEM medium such that the final DMSO content was <1% or were added using an ultrasound dispensing system. 4 wells were reserved for a background measurement. […] After aspirating the fixing solution, the cells were washed once with 25 µl PBS. 25 µl of blocking buffer (10% goat serum in PBS) was added and cells were incubated for 30 min, then washed once with PBS. Cells were stained with 20 µl of SMARCA2/4 primary antibody solution (Sigma #HPA029981 RRID:AB_10602406 1:1000 or Cell Signalling #52251 clone E9O6 RRID:AB_2799410 1:1000 in PBS with 10% FCS) for 2–4 h at room temperature. Cells were again washed once with PBS. […] The cell layer was then washed once with 25 µl PBS, the wells were filled with 25 µl PBS and the plates were sealed with an adhesive sheet. They were then imaged on the Opera Phoenix (mean intensity in the nucleus). Results were computed as percent of controls ((value of test compound − background)/(value of the negative control DMSO—background) multiplied by 100). EC50 values were computed using a 4-parametric logistic model.

[1] = 4h, read-out: RKO (4h) SMARCA4 DC50
[2] = 18h, read-out: RKO (18h) SMARCA4 DC50

T1 sequence (P51532 1448-1569): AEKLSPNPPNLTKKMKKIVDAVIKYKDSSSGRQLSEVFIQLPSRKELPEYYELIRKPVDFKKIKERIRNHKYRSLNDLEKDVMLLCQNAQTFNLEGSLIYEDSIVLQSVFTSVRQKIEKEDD
Chain of SMARCA4 (P51532 whole entry): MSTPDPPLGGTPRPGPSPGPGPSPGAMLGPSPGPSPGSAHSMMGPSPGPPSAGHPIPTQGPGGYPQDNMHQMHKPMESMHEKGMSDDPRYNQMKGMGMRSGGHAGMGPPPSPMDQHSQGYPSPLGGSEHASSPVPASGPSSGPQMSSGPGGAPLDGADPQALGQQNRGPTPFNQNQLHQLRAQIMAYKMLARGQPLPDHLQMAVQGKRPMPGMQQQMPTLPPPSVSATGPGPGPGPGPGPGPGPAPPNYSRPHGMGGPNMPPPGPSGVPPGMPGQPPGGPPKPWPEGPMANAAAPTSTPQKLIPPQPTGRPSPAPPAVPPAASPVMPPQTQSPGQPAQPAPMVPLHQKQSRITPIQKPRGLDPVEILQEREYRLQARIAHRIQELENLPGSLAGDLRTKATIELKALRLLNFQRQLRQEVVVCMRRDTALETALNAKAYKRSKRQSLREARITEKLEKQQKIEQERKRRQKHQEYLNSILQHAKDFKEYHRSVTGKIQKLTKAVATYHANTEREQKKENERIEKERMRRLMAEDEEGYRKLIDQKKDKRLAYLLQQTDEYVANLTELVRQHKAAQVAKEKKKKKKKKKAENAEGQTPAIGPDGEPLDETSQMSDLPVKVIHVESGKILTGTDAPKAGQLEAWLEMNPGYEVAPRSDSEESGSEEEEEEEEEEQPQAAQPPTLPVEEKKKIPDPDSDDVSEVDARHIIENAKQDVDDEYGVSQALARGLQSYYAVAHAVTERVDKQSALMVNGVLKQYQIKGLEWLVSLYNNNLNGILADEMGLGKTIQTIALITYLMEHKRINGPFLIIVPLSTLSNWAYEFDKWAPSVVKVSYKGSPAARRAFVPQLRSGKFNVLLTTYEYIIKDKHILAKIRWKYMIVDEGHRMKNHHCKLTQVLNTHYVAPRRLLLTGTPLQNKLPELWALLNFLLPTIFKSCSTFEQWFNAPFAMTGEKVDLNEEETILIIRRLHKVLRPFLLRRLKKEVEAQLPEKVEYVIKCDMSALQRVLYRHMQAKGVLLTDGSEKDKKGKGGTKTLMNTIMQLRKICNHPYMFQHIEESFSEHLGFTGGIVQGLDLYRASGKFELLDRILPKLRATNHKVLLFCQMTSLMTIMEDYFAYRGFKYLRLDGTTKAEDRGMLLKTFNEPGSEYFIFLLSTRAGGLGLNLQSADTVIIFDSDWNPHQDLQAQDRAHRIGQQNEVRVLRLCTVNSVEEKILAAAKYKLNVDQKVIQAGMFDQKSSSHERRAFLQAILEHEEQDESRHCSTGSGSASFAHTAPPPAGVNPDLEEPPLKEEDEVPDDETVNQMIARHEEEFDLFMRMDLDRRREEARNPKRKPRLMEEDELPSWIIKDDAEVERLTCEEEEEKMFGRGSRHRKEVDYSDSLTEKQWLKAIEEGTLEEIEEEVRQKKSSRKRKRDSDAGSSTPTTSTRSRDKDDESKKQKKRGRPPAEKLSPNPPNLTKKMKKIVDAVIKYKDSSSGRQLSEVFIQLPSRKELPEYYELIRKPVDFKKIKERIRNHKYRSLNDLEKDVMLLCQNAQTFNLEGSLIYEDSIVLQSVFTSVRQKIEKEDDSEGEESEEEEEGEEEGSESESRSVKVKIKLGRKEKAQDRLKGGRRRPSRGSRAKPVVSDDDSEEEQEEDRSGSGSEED

Row | SMILES | Kd (SMARCA4^BD; SMARCA4BD, mean ± SD) [nM] | Kd (SMARCA4^BD; individual replicates) | DC50 (SMARCA4; [1]) | DC50 (SMARCA4; [2])
1 | Nc1cccc2c1c(=O)nc1n(C3CCCC3)c3ccccc3n21 [compound 2] | 2750 ± 455 | 2.74 µM and 2.3 µM and 3.21 µM and > 2 µM (2×) | 2.7 µM and > 25 µM (2×) | > 25000 nM
2 | Cc1ncsc1-c1ccc([C@H](CCCCCN2CCC(c3ccc4c(c3)n(C3CCCC3)c3nc(=O)c5c(Br)cccc5n43)CC2)NC(=O)[C@@H]2C[C@@H](O)CN2C(=O)[C@@H](NC(=O)C2(F)CC2)C(C)(C)C)cc1 [compound 11] | 297 ± 147 | 201 nM and 223 nM and 466 nM | 20 nM and 10.1 nM and 26.4 nM and 8.2 nM | 9.56 nM and 14.6 nM and 11.5 nM and 9.12 nM and 15.1 nM
3 | CN1CCN(c2nc(=O)c3c(Br)cccc3o2)CC1 [compound 15] | 12000 ± 902 | 12900 nM and 11900 nM and 11100 nM | > 25000 nM | > 25000 nM
4 | Cc1ncsc1-c1ccc(CNC(=O)[C@@H]2C[C@@H](O)CN2C(=O)[C@@H](NC(=O)C2(F)CC2)C(C)(C)C)c(OCCN2CCC(c3ccc4c(c3)n(C3CCCC3)c3nc(=O)c5c(Br)cccc5n43)CC2)c1 [compound 20] | 182 ± 23 | 157 nM and 202 nM and 187 nM | > 25000 nM | > 25000 nM
5 | Cc1ncsc1-c1ccc([C@H](CC[C@@H](C)CCN2CCC(c3ccc4c(c3)n(C3CCCC3)c3nc(=O)c5c(Br)cccc5n43)CC2)NC(=O)[C@@H]2C[C@@H](O)CN2C(=O)[C@@H](NC(=O)C2(F)CC2)C(C)(C)C)cc1 [compound 29] | 397 ± 49 | 347 nM and 400 nM | 11.1 nM and 13.5 nM and 12.4 nM and 24.9 nM | 6.86 nM and 10.4 nM (2×) and 14.2 nM and 15.3 nM and 14 nM
6 | CN1CCN(c2nc(=O)c3c(I)cccc3o2)CC1 [compound 16] | 22100 ± 1230 | 23100 nM and 20700 nM and 22400 nM | > 25000 nM | > 25000 nM
7 | CN1CCC(c2ccc3c(c2)n(C2CCCC2)c2nc(=O)c4c(Br)cccc4n32)CC1 [compound 3] | 58 ± 10 | 110 nM and 97.7 nM and 113 nM and 69.4 nM and 51 nM and 52.7 nM | > 25000 nM | 6980 nM and 15500 nM and 13600 nM
8 | Cc1ncsc1-c1ccc([C@H](COCCN2CCC(c3ccc4c(c3)n(C3CCCC3)c3nc(=O)c5c(Br)cccc5n43)CC2)NC(=O)[C@@H]2C[C@@H](O)CN2C(=O)[C@@H](NC(=O)C2(N(C)C)CC2)C(C)(C)C)cc1 [compound 26] | 210 ± 17 | 202 nM and 199 nM and 229 nM | 66.9 nM and 93.6 nM and 83.9 nM | 61.5 nM and 91.3 nM and 101 nM
9 | Cc1ncsc1-c1ccc([C@H](COCCCN2CCC(c3ccc4c(c3)n(C3CCCC3)c3nc(=O)c5c(Br)cccc5n43)CC2)NC(=O)[C@@H]2C[C@@H](O)CN2C(=O)[C@@H](NC(=O)C2(F)CC2)C(C)(C)C)cc1 [compound 27] | 388 ± 96 | 308 nM and 361 nM and 494 nM |  | 22.8 nM and 30.9 nM and 34.7 nM
10 | Cc1ncsc1-c1ccc(CNC(=O)[C@@H]2C[C@@H](O)CN2C(=O)[C@@H](NC(=O)C2(F)CC2)C(C)(C)C)c(OCCOCCOCCN2CCC(c3ccc4c(c3)n(C3CCCC3)c3nc(=O)c5c(Br)cccc5n43)CC2)c1 [compound 21] | 863 ± 179 | 868 nM and 1040 nM and 682 nM | 22.9 nM and 45.5 nM and 8.98 nM | 42.3 nM and 189 nM and 70.5 nM
11 | Cc1ncsc1-c1ccc(CNC(=O)[C@@H]2C[C@@H](O)CN2C(=O)[C@@H](NC(=O)C2(F)CC2)C(C)(C)C)c(OCCOCCOCCOCCN2CCC(c3ccc4c(c3)n(C3CCCC3)c3nc(=O)c5c(Br)cccc5n43)CC2)c1 [compound 22] | 1430 ± 339 | 1040 nM and 1650 nM and 1600 nM | 32.8 nM and 118 nM and 40 nM | 39.9 nM and 168 nM and 69.1 nM
12 | Cc1ncsc1-c1ccc([C@H](COC(C)CN2CCC(c3ccc4c(c3)n(C3CCCC3)c3nc(=O)c5c(Br)cccc5n43)CC2)NC(=O)[C@@H]2C[C@@H](O)CN2C(=O)[C@@H](NC(=O)C2(N(C)C)CC2)C(C)(C)C)cc1 (stereo partly shown) [compound 10] | 381 ± 28 | 359 nM and 413 nM and 372 nM | > 25000 nM | 103 nM and 218 nM and 235 nM
13 | Cc1ncsc1-c1ccc([C@H](CCCCN2CCC(c3ccc4c(c3)n(C3CCCC3)c3nc(=O)c5c(Br)cccc5n43)CC2)NC(=O)[C@@H]2C[C@@H](O)CN2C(=O)[C@@H](NC(=O)C2(F)CC2)C(C)(C)C)cc1 [compound 25] | 153 ± 10 | 142 nM and 157 nM and 161 nM |  | 31.7 nM and 60 nM and 33.5 nM
14 | Cc1ncsc1-c1ccc([C@H](COC(C)(C)CN2CCC(c3ccc4c(c3)n(C3CCCC3)c3nc(=O)c5c(Br)cccc5n43)CC2)NC(=O)[C@@H]2C[C@@H](O)CN2C(=O)[C@@H](NC(=O)C2(F)CC2)C(C)(C)C)cc1 [compound 28] | 278 ± 14 | 267 nM and 293 nM and 274 nM |  | 101 nM and 200 nM (2×) and > 833 nM
15 | CN1CCN(c2nc(=O)c3c(Cl)cccc3o2)CC1 [compound 13] | 35600 ± 346 | 31600 nM and 37500 nM and 37700 nM | > 25000 nM | > 25000 nM
16 | CN1CCN(c2nc(=O)c3c(F)cccc3o2)CC1 [compound 17] |  |  | > 25000 nM | > 25000 nM
17 | Cc1ncsc1-c1ccc(CNC(=O)[C@@H]2C[C@@H](O)CN2C(=O)[C@@H](NC(=O)C2(F)CC2)C(C)(C)C)c(OCCCCN2CCC(c3ccc4c(c3)n(C3CCCC3)c3nc(=O)c5c(Br)cccc5n43)CC2)c1 [compound 23] | 169 ± 76 | 117 nM and 133 nM and 256 nM |  | 

— article PMC9551036, “A selective and orally bioavailable VHL-recruiting PROTAC achieves SMARCA2 degradation in vivo” (Nature Communications, 2022)
